Test results reported in patent US7351431B2, “Freeze-dried pharmaceutical preparation” (Dainippon Sumitomo Pharma Co., Ltd., priority 2001, dated 2008).

Assay: Content of drug solution in 2-methyl-2-propanol during stirring by Polytron or stirrer
Type: physicochemical
Settings: about 40° C.; for Content [vs. 0 h %]: about 4.0 mg/mL in 2-methyl-2-propanol
Method: Then, whether the content and analogous substance are affected by stirring in a homomixer was considered. To cis[((1R,2R)-1,2-cyclohexanediamine-N,N′)bis(tetradecanoyloxy)]platinum(II) monohydrate was added 2-methyl-2-propanol to a liquid formulation concentration of about 4.0 mg/mL. This was prepared in two Erlenmeyer flasks. One Erlenmeyer flask was stirred with a stirrer at a liquid temperature of about 40° C. after ultrasonication. The other Erlenmeyer flask was stirred at about 10000 rpm at a liquid temperature of about 40° C. using Polytron pulverizer (pulverization diameter G8) manufactured by IKA that pulverizes and dissolves by the same mechanism as a homogenizer. The stirring was continued with the time point when the bulk was dissolved as 0 hr. The drug solution was sampled with the lapse of time and the dissolution state was observed and the content and analogous substances were measured.

CCCCCCCCCCCCCC(=O)[O][Pt]1([O]C(=O)CCCCCCCCCCCCC)[NH][C@@H]2CCCC[C@H]2[NH]1 [bulk, cis[((1R,2R)-1,2-cyclohexanediamine-N,N′)bis(tetradecanoyloxy)]platinum(II) monohydrate]
Content [vs. 0 h %] (Polytron, stirring time 0): 100% | Content [vs. 0 h %] (Polytron, stirring time 0.5 h): 99.5% | Content [vs. 0 h %] (Polytron, stirring time 1 h): 99.4% | Content [vs. 0 h %] (Polytron, stirring time 2 h): 100.9% | Content and analogous substances with the lapse of stirring time (any stirring method (Polytron or stirrer)): showed no change | Content [vs. 0 h %] (stirrer, stirring time 0): 100% | Content [vs. 0 h %] (stirrer, stirring time 0.5 h): 100.9% | Content [vs. 0 h %] (stirrer, stirring time 1 h): 100.2% | Content [vs. 0 h %] (stirrer, stirring time 2 h): 103.1%
